We go through 20 molecules from PubChem BioAssay AID330 (DTP/NCI, 2004).

This assay concerns P388 leukemia ip, CD2F1 mice, survival T/C. In words: NCI In Vivo Anticancer Drug Screen. Data for tumor model P388 Leukemia (intraperitoneal) in CD2F1 (CDF1) mice. To be noted: endpoint: median survival time, higher = longer survival. In a few lines:
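Mice carrying the transplanted tumor received test compound or vehicle. Survival was recorded in each group, and the value is the treated-group measurement divided by that of the vehicle-treated control group.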

Where [1] appears, read: dose: 50.0 mg/kg/injection, schedule: Q01DX005 (ip), vehicle: Klucel (hydroxypropylcellulose) (HPC).
Setting [2] is: dose: 200.0 mg/kg/injection, schedule: Q01DX005 (ip), vehicle: Klucel (hydroxypropylcellulose) (HPC).
[3] abbreviates: dose: 100.0 mg/kg/injection, schedule: Q01DX005 (ip), vehicle: Klucel (hydroxypropylcellulose) (HPC).
Setting [4] is: dose: 50.0 mg/kg/injection, schedule: Q01DX009 (ip), vehicle: Klucel (hydroxypropylcellulose) (HPC).
The mark [5] stands for this setting: dose: 100.0 mg/kg/injection, schedule: Q01DX009 (ip), vehicle: Klucel (hydroxypropylcellulose) (HPC).
[6] abbreviates: dose: 50.0 mg/kg/injection, schedule: Q01DX005 (ip), vehicle: saline with Tween-80.
Where [7] appears, read: dose: 100.0 mg/kg/injection, schedule: Q01DX005 (ip), vehicle: saline with Tween-80.
Where [8] appears, read: dose: 200.0 mg/kg/injection, schedule: Q01DX005 (ip), vehicle: saline with Tween-80.
Setting [9] is: dose: 6.25 mg/kg/injection, schedule: Q01DX009 (ip), vehicle: Klucel (hydroxypropylcellulose) (HPC).
Where [10] appears, read: dose: 12.5 mg/kg/injection, schedule: Q01DX009 (ip), vehicle: Klucel (hydroxypropylcellulose) (HPC).
Setting [11] is: dose: 25.0 mg/kg/injection, schedule: Q01DX009 (ip), vehicle: Klucel (hydroxypropylcellulose) (HPC).

Values joined by “and” are separate entries in the source; they are usually repeats but may differ in a detail not shown here. Equal entries are not always repeated. Inconclusive results and toxic doses are left out.

Turning to `OCC(O)CCBr` (stereo not drawn), the T/C (dose: 12.5 mg/kg/injection, schedule: Q01DX009 (ip), vehicle: saline with Tween-80) is 107 % of control; the T/C (dose: 25.0 mg/kg/injection, schedule: Q01DX009 (ip), vehicle: saline with Tween-80) was 107 % of control; the T/C (dose: 50.0 mg/kg/injection, schedule: Q01DX009 (ip), vehicle: saline with Tween-80) was 114 % of control and 96 % of control; the T/C (dose: 100.0 mg/kg/injection, schedule: Q01DX009 (ip), vehicle: saline with Tween-80) was 89 % of control; the T/C (dose: 100.0 mg/kg/injection, schedule: Q04DX003 (ip), vehicle: saline) was 118 % of control; the T/C (dose: 200.0 mg/kg/injection, schedule: Q01DX009 (ip), vehicle: saline with Tween-80) is 95 % of control. In addition, the T/C is, setting by setting: (dose: 200.0 mg/kg/injection, schedule: Q04DX003 (ip), vehicle: saline) 122 % of control; (dose: 264.0 mg/kg/injection, schedule: Q01DX009 (ip), vehicle: saline sonified) 159 % of control; (dose: 264.0 mg/kg/injection, schedule: Q04DX003 (ip), vehicle: saline) 110 % of control; (dose: 400.0 mg/kg/injection, schedule: Q01DX009 (ip), vehicle: saline sonified) 181 % of control; (dose: 600.0 mg/kg/injection, schedule: Q01DX009 (ip), vehicle: saline sonified) 186 % of control; (dose: 600.0 mg/kg/injection, schedule: Q04DX003 (ip), vehicle: saline) 115 % of control.
Regarding `O=C(CNNC(=O)c1ccncc1)Nc1ccc(S(=O)(=O)c2ccc(NC(=O)CNNC(=O)c3ccncc3)cc2)cc1`, the T/C reads like this: (dose: 25.0 mg/kg/injection, schedule: Q01DX005 (ip), vehicle: Klucel (hydroxypropylcellulose) (HPC)) 89 % of control; under setting [1], 90 % of control and 91 % of control; under setting [2], 86 % of control.
As to `NC(=O)c1cccn(-c2ccccc2)c1=S`, the T/C under setting [1] was 89 % of control, the T/C under setting [3] is 105 % of control and the T/C under setting [2] was 105 % of control.
Regarding `Nc1nc2c(c(=O)[nH]1)N(C(=O)c1ccc(S(=O)(=O)F)cc1)C(CNc1ccc(C(=O)NC(CCC(=O)O)C(=O)O)cc1)CN2` (stereo not drawn), the T/C by setting is: (dose: 50.0 mg/kg/injection, schedule: Q04DX003 (ip), vehicle: other) 104 % of control; (dose: 100.0 mg/kg/injection, schedule: Q04DX003 (ip), vehicle: other) 104 % of control; (dose: 200.0 mg/kg/injection, schedule: Q04DX003 (ip), vehicle: other) 113 % of control.
Consider `CCOC(=O)CCC1=C(C)c2cc3[nH]c(cc4[nH]c(cc5nc(cc1n2)C(CCC(=O)OCC)=C5C)c(C1CC1C(=O)OCC)c4C)c(C1CC1C(=O)OCC)c3C` (stereo not drawn), for which the T/C under setting [1] is 102 % of control, the T/C under setting [3] is 100 % of control and the T/C under setting [2] was 101 % of control.
In the case of `CN(C)c1ccc(NC(=S)Nc2ccccc2C(F)(F)F)cc1`, the T/C was 100 % of control under setting [4]; 100 % of control under setting [5]; 96 % of control (dose: 200.0 mg/kg/injection, schedule: Q01DX009 (ip), vehicle: Klucel (hydroxypropylcellulose) (HPC)).
For `C=CCC1(C(C)C(O)c2cc(OC)c(OC)c(OC)c2)CC(O)C=CC12OCCO2` (stereo not drawn), the T/C is, setting by setting: (dose: 1.25 mg/kg/injection, schedule: Q01DX005 (ip), vehicle: acid diluted with saline) 94 % of control; (dose: 2.5 mg/kg/injection, schedule: Q01DX005 (ip), vehicle: acid diluted with saline) 103 % of control; (dose: 5.0 mg/kg/injection, schedule: Q01DX005 (ip), vehicle: acid diluted with saline) 100 % of control; (dose: 10.0 mg/kg/injection, schedule: Q01DX005 (ip), vehicle: acid diluted with saline) 100 % of control.
Consider `CCOC(=O)C(CC/C=C(\C)CC/C=C/COC(=O)N(C(C)C)C(C)C)P(=O)(OCC)OCC` (stereo not drawn), for which the T/C reads like this: under setting [6], 109 % of control; under setting [7], 106 % of control; under setting [8], 109 % of control.
As for `O=[N+]([O-])c1ccc(Cl)nc1Sc1ncccn1`, the T/C under setting [9] is 96 % of control, the T/C under setting [10] was 91 % of control, the T/C under setting [11] is 104 % of control and the T/C under setting [5] is 95 % of control.
Take `COc1c(Cl)cc2c(c1OC)N(C)C1N3C(=O)C4(C)SSC3(C(=O)N4C)C(O)C21O` (stereo not drawn): the T/C runs as follows: (dose: 0.03 mg/kg/injection, schedule: Q01DX009 (ip), vehicle: Klucel (hydroxypropylcellulose) (HPC)) 100 % of control and 118 % of control; (dose: 0.06 mg/kg/injection, schedule: Q01DX009 (ip), vehicle: Klucel (hydroxypropylcellulose) (HPC)) 89 % of control; (dose: 0.13 mg/kg/injection, schedule: Q01DX009 (ip), vehicle: Klucel (hydroxypropylcellulose) (HPC)) 96 % of control; (dose: 0.5 mg/kg/injection, schedule: Q01DX009 (ip), vehicle: Klucel (hydroxypropylcellulose) (HPC)) 94 % of control.
Take `COC(=O)C1OC(SCCN)C(O)C(O)C1O` (stereo not drawn): the T/C was 100 % of control (dose: 50.0 mg/kg/injection, schedule: Q01DX009 (ip), vehicle: water); 102 % of control (dose: 100.0 mg/kg/injection, schedule: Q01DX009 (ip), vehicle: water); 91 % of control (dose: 200.0 mg/kg/injection, schedule: Q01DX009 (ip), vehicle: water).
For the molecule `C[S+](C)CCCNC(=O)c1csc(-c2csc(-c3ccccc3)n2)n1`, the T/C runs as follows: (dose: 6.25 mg/kg/injection, schedule: Q01DX005 (ip), vehicle: water) 100 % of control; (dose: 12.5 mg/kg/injection, schedule: Q01DX005 (ip), vehicle: water) 107 % of control; (dose: 25.0 mg/kg/injection, schedule: Q01DX005 (ip), vehicle: water) 106 % of control.
In the case of `O=C(OCc1ccccc1)N1C[C@@H](Br)[C@H](Br)[C@H]1Cc1ccccc1`, the T/C is, setting by setting: (dose: 100.0 mg/kg/injection, schedule: Q01DX001 (ip), vehicle: distilled water + alcohol) 95 % of control; (dose: 200.0 mg/kg/injection, schedule: Q01DX001 (ip), vehicle: distilled water + alcohol) 100 % of control.
Regarding `Cc1c(C)c(C)c(C(=O)c2ccccc2C(=O)NCCSC(C)(C)C)c(C)c1C`, the T/C is 98 % of control (dose: 30.0 mg/kg/injection, schedule: Q01DX005 (ip), vehicle: Klucel (hydroxypropylcellulose) (HPC)); 93 % of control and 96 % of control (dose: 60.0 mg/kg/injection, schedule: Q01DX005 (ip), vehicle: Klucel (hydroxypropylcellulose) (HPC)); 92 % of control (dose: 120.0 mg/kg/injection, schedule: Q01DX005 (ip), vehicle: Klucel (hydroxypropylcellulose) (HPC)); 87 % of control (dose: 240.0 mg/kg/injection, schedule: Q01DX005 (ip), vehicle: Klucel (hydroxypropylcellulose) (HPC)).
As to `COc1c2c(c(OC)c3c1C(=O)c1ccccc1C3O)CC=CC2` (stereo not drawn), the T/C reads like this: (dose: 25.0 mg/kg/injection, schedule: Q01DX009 (ip), vehicle: other) 94 % of control; (dose: 50.0 mg/kg/injection, schedule: Q01DX009 (ip), vehicle: other) 91 % of control; (dose: 100.0 mg/kg/injection, schedule: Q01DX009 (ip), vehicle: other) 91 % of control; (dose: 200.0 mg/kg/injection, schedule: Q01DX009 (ip), vehicle: other) 95 % of control; (dose: 400.0 mg/kg/injection, schedule: Q01DX009 (ip), vehicle: other) 100 % of control.
As to `O=S(=O)(/N=C1\c2ccccc2/C(=N\S(=O)(=O)c2ccccc2)C2C3C=CC(C3)C12)c1ccccc1` (stereo not drawn), the T/C is, setting by setting: (dose: 25.0 mg/kg/injection, schedule: Q01DX001 (ip), vehicle: saline with Tween-80) 115 % of control; (dose: 50.0 mg/kg/injection, schedule: Q01DX001 (ip), vehicle: saline with Tween-80) 100 % of control; (dose: 100.0 mg/kg/injection, schedule: Q01DX001 (ip), vehicle: saline with Tween-80) 90 % of control.
`O=C(O)CCCCOc1ccc(N(CCCl)CCCl)cc1`: the T/C (dose: 100.0 mg/kg/injection, schedule: Q01DX001 (ip), vehicle: Klucel (hydroxypropylcellulose) (HPC)) is 123 % of control.
Turning to `O=C(Nc1ncn[nH]1)c1ccccc1O`, the T/C runs as follows: under setting [1], 99 % of control; under setting [3], 91 % of control; under setting [2], 86 % of control.
As to `COc1cccc(C=Nc2ccccc2O)c1O.[O]=[V]`, the T/C by setting is: under setting [9], 98 % of control and 107 % of control; under setting [10], 106 % of control and 115 % of control; under setting [11], 100 % of control and 118 % of control; under setting [4], 91 % of control.
For `CCOc1cc2c(cc1C(C)(C)c1ccccc1)OCO2`, the T/C reads like this: under setting [6], 99 % of control; under setting [7], 92 % of control; under setting [8], 96 % of control.
